From US11306071B2, “Heterocyclic compounds as adenosine antagonists” (Nuvation Bio Inc., priority 2019, dated 2022)

Assays:
[1] = biological target: adenosine A2a (human) membrane (Homo sapiens (Human), UniProt P29274); test: A2A adenosine receptor radioligand binding assay ([3H] CGS-21680); settings: radioligand [3H] CGS-21680 6 nM
Method: A second A2A adenosine receptor radioligand binding assay protocol was used. The protocol used adenosine A2a (human) membrane (PerkinElmer RBHA2AM400UA) at a concentration of 5 μg/well/100 μl and the radioligand [3H] CGS-21680 (Cat No. PerkinElmer-NET1021250UC) at a final concentration of 6 nM. Testing compounds were diluted with DMSO to make 8-point 4-fold serial dilution, starting at 0.2 mM. CGS-15943 was the reference compound. 1 μl of compounds/high control/low control was transferred to the assay plate according to a plate map, followed by 100 μl of membrane stocks and 100 μl of radioligand, in assay buffer (50 mM Tris-HCl, 10 mM MgCl2, 1 mM EDTA, pH 7.4). The plate was sealed and incubated at RT for 2 hours. Unifilter-96 GF/C filter plates (Perkin Elmer Cat #6005174) were soaked with 50 μl of 0.3% PEI per well for at least 0.5 hour at room temperature. When the binding assays were completed, the reaction mixtures were filtered through GF/C plates using Perkin Elmer Filtermate Harvester, and each plate washed 4 times with cold wash buffer (50 mM Tris-HCl, 154 mM NaCl, pH 7.4). The filter plates were dried for 1 hour at 50 degrees. After drying, the bottom of the filter plate wells was sealed, 50 μl of Perkin Elmer Microscint 20 cocktail was added, and the top of the filter plate was sealed. ^3H trapped on the filter was counted using Perkin Elmer MicroBeta2 Reader. The data were analyzed with GraphPad Prism 5 to obtain binding IC50 values. The “Inhibition [% Control]” was calculated using the equation: % Inh=(1-Background subtracted Assay value/Background subtracted HC value)*100, where HC is high control.

[2] = biological target: adenosine A1 (human) membrane (Homo sapiens (Human), UniProt P30542); test: A1 adenosine receptor radioligand binding assay ([3H] DPCPX); settings: 200 nM compound; radioligand [3H] DPCPX 1 nM
adenosine A1 (human) membrane, sequence (P30542 whole entry): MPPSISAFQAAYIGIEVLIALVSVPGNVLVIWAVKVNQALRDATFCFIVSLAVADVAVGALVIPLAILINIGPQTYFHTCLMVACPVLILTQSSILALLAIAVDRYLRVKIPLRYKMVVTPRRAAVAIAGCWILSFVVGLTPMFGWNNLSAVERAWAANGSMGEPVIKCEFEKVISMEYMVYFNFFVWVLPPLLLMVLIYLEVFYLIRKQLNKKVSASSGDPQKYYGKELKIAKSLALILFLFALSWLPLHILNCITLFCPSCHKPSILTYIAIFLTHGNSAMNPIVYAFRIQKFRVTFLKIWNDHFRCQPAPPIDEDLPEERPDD
Method: A second A1 adenosine receptor radioligand binding assay protocol was used. The protocol used adenosine A1 (human) membrane (PerkinElmer ES-010-M400UA) at a concentration of 2.5 μg/well/100 μl and the radioligand [3H] DPCPX (Cat No. PerkinElmer-NET974250UC) at a final concentration of 1 nM. Testing compounds were tested at a final concentration of 200 nM. CGS-15943, the reference compound, was tested in an 8-point 4-fold serial dilution, starting at a top concentration of 1 μM. 1 μl of compounds/high control/low control was transferred to the assay plate according to a plate map, followed by 100 μl of membrane stocks and 100 μl of radioligand, in assay buffer (25 mM HEPES, 5 mM MgCl2, 1 mM CaCl2, 100 mM NaCl, pH 7.4). The plate was sealed and incubated at RT for 1 hour. Unifilter-96 GF/C filter plates (Perkin Elmer Cat #6005174) were soaked with 50 μl of 0.3% PEI per well for at least 0.5 hour at room temperature. When the binding assays were completed, the reaction mixtures were filtered through GF/C plates using Perkin Elmer Filtermate Harvester, and each plate washed 4 times with cold wash buffer (25 mM HEPES, 5 mM MgCl2, 1 mM CaCl2, 100 mM NaCl, pH 7.4). The filter plates were dried for 1 hour at 50 degrees. After drying, the bottom of the filter plate wells was sealed, 50 μl of Perkin Elmer Microscint 20 cocktail was added, and the top of the filter plate was sealed. ^3H trapped on the filter was counted using Perkin Elmer MicroBeta2 Reader. The data were analyzed with GraphPad Prism 5 to obtain binding IC50 values for the reference compound. The “Inhibition [% Control]” was calculated using the equation: % Inh=(1-Background subtracted Assay value/Background subtracted HC value)*100, where HC is high control.

[3] = biological target: HEK-293 cells expressing human recombinant adenosine A1 receptor (Homo sapiens (Human), UniProt P30542); test: cAMP assay (Assay 2), A1 receptor; type: cell-based
HEK-293 cells expressing human recombinant adenosine A1 receptor, sequence (P30542 whole entry): as above
Method: (§1) The functional activity of compounds was tested using Assay 2, below, to detect the presence of cAMP. Assay 1 is an alternative assay for this purpose. Activation of G-protein coupled receptors (such as A2A) results in activation of adenylyl cyclase which converts ATP into cAMP which is used as a downstream signaling molecule. Therefore, molecules which act as GPCR (or specifically A2A receptor) antagonists cause a decrease in intracellular cAMP concentration.
(§2) Assay 2 (Table B2): This assay used HEK-293 cells expressing human recombinant adenosine A2A receptor (or, alternatively, A1 receptor) that were grown prior to the test in media without antibiotic. 100 nL of test articles at 100x of final concentration were transferred to assay plate by Echo. Cells were washed twice with 5 mL of PBS and 10 μL of cells were mixed with 5 mL PBS. After aspirating the PBS and adding 1.5 mL versine, cells were incubated at 37° C. for 2-5 min. After centrifugation, 4 mL of medium was added and adjusted cell density to 5,000 cells/well with Stimulation Buffer. 10 μL of cells were aliquoted to the assay plate, centrifuged at 1000 rpm for 1 minute, and incubated for 60 minutes at room temperature. 5 μL 4× Eu-cAMP tracer solution and 5 μL 4× Ulight™-anti-cAMP solution were added to assay plate, followed by centrifugation and 60-minute incubation at room temperature. Plates were read on EnVision.

[4] = biological target: HEK-293 cells expressing human recombinant adenosine A2A receptor (Homo sapiens (Human), UniProt P29274); test: cAMP assay (Assay 2), A2A receptor; type: cell-based
HEK-293 cells expressing human recombinant adenosine A2A receptor, sequence (P29274 whole entry): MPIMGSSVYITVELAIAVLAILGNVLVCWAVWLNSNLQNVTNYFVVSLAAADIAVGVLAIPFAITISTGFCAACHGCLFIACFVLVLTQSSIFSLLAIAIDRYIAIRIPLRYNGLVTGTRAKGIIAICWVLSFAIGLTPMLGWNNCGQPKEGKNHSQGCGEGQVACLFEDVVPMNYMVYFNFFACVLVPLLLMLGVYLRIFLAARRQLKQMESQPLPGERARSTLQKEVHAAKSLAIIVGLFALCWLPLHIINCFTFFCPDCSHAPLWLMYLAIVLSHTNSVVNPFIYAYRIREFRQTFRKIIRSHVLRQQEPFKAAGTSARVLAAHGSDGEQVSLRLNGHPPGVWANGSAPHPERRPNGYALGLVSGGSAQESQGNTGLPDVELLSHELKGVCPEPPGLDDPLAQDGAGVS
Method: as §1, §2

adenosine A2a (human) membrane, sequence (P29274 whole entry): as above

SMILES: CC(NC(=O)c1nc(-c2ccc3ncccc3c2)c(-c2ccccc2)nc1N)c1ccccn1 (stereo not shown) [compound 73, 3-amino-5-phenyl-N-(1-(pyridin-2-yl)ethyl)-6-(quinolin-6-yl)pyrazine-2-carboxamide]
- IC50 [1]: 3.1 nM
- inhibition at 0.2 µM [2]: 61%
- IC50 [3]: 403 nM
- IC50 [4]: 53 nM
